EC50 data for 41 compounds are collected here from patent publication US20210369853A1, “TARGETED PROTEASE DEGRADATION PLATFORM” (EUBULUS BIOTHERAPEUTICS INC., priority 2018, published 2021).

The subject of the first assay is Human Monocytic Leukemia MV4-11. Put plainly: Cell proliferation experiment (Alarm blue, 72 h, EC50). It is filed as cell-based. Particulars: Homo sapiens, MV4-11, MV4;11 cells. An outline of the steps:
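Duplicate wells per concentration, 5-fold dilution series, 72 h continuous exposure of log-phase cells; read-out Alamar blue fluorescence, EC50 derived by curve fit with minimum, maximum and slope terms.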
The compound `O=C1CCC(N2Cc3c(NC(=O)CCOCCNCCN4CCC(NC(=O)c5ccc(Nc6ncc7c(n6)-c6ccc(Cl)cc6C(c6c(F)cccc6F)=NC7)cc5)CC4)cccc3C2=O)C(=O)N1` (centres unmarked) [UB-180768] came in with an EC50 of 100 to 1000 nM.

The compound `O=C1CCC(N2Cc3c(NC(=O)CCOCCNCCN4CCC(NC(=O)[C@]5(Cc6cccc(Nc7nccs7)n6)CC[C@@H](Oc6cccc(Cl)c6F)CC5)CC4)cccc3C2=O)C(=O)N1` (some centres unmarked) [UB-180769] showed an EC50 of 100 to 1000 nM.

Consider `O=C1CCC(N2Cc3c(NC(=O)CCCCCNCCOCCOCCOCCNC(=O)c4ccc(Nc5ncc6c(n5)-c5ccc(Cl)cc5C(c5c(F)cccc5F)=NC6)cc4)cccc3C2=O)C(=O)N1` (centres unmarked) [UB-180770], for which the EC50 was in the range of 100 to 1000 nM.

`O=C1CCC(N2Cc3c(NC(=O)CCCCCNCCOCCOCCOCCNC(=O)[C@]4(Cc5cccc(Nc6nccs6)n5)CC[C@@H](Oc5cccc(Cl)c5F)CC4)cccc3C2=O)C(=O)N1` (some centres unmarked) [UB-180771]: the EC50 fell in the range of 100 to 1000 nM.

Turning to `O=C1CCC(N2Cc3c(NC(=O)CCCCNCCOCCOCCOCCNC(=O)c4ccc(Nc5ncc6c(n5)-c5ccc(Cl)cc5C(c5c(F)cccc5F)=NC6)cc4)cccc3C2=O)C(=O)N1` (centres unmarked) [UB-180772], the EC50 was more than 1000 nM.

Compound `O=C1CCC(N2Cc3c(NC(=O)CCCNCCOCCOCCOCCNC(=O)c4ccc(Nc5ncc6c(n5)-c5ccc(Cl)cc5C(c5c(F)cccc5F)=NC6)cc4)cccc3C2=O)C(=O)N1` (centres unmarked) [UB-180773] came in with an EC50 of 100 to 1000 nM.

As to `O=C1CCC(N2Cc3c(NC(=O)CCNCCn4ncc(CNC(=O)[C@]5(Cc6cccc(Nc7nccs7)n6)CC[C@@H](Oc6cccc(Cl)c6F)CC5)n4)cccc3C2=O)C(=O)N1` (some centres unmarked) [UB-180774], the EC50 lay in the range of 100 to 1000 nM.

The compound `O=C1CCC(N2Cc3c(NC(=O)CCNCCOCCN4CCC(NC(=O)c5ccc(Nc6ncc7c(n6)-c6ccc(Cl)cc6C(c6c(F)cccc6F)=NC7)cc5)CC4)cccc3C2=O)C(=O)N1` (centres unmarked) [UB-180775] returned an EC50 of 100 to 1000 nM.

For the compound `O=C1CCC(N2Cc3c(NC(=O)CCNCCOCCN4CCC(NC(=O)[C@]5(Cc6cccc(Nc7nccs7)n6)CC[C@@H](Oc6cccc(Cl)c6F)CC5)CC4)cccc3C2=O)C(=O)N1` (some centres unmarked) [UB-180776], the EC50 lay within 100 to 1000 nM.

As for `O=C1CCC(N2Cc3c(NC(=O)CCNCCOCCOCCNC(=O)c4ccc(Nc5ncc6c(n5)-c5ccc(Cl)cc5C(c5c(F)cccc5F)=NC6)cc4)cccc3C2=O)C(=O)N1` (centres unmarked) [UB-180777], the EC50 was in the range of 100 to 1000 nM.

Take `O=C1CCC(N2Cc3c(NC(=O)CCCCNCCOCCOCCOCCNC(=O)[C@]4(Cc5cccc(Nc6nccs6)n5)CC[C@@H](Oc5cccc(Cl)c5F)CC4)cccc3C2=O)C(=O)N1` (some centres unmarked) [UB-180778]: the EC50 was more than 1000 nM.

`O=C1CCC(N2Cc3c(NC(=O)CCCNCCOCCOCCOCCNC(=O)[C@]4(Cc5cccc(Nc6nccs6)n5)CC[C@@H](Oc5cccc(Cl)c5F)CC4)cccc3C2=O)C(=O)N1` (some centres unmarked) [UB-180779] displayed an EC50 of more than 1000 nM.

As for `Cc1ncsc1-c1ccc(CNC(=O)[C@@H]2C[C@@H](O)CN2C(=O)[C@@H](NC(=O)CCNCCOCCOCCOCCNC(=O)c2ccc(Nc3ncc4c(n3)-c3ccc(Cl)cc3C(c3c(F)cccc3F)=NC4)cc2)C(C)(C)C)cc1` [UB-180780], the EC50 was more than 1000 nM.

Take `Cc1ncsc1-c1ccc(CNC(=O)[C@@H]2C[C@@H](O)CN2C(=O)[C@@H](NC(=O)CNCCOCCOCCOCCNC(=O)c2ccc(Nc3ncc4c(n3)-c3ccc(Cl)cc3C(c3c(F)cccc3F)=NC4)cc2)C(C)(C)C)cc1` [UB-180781]: the EC50 was in the range of 100 to 1000 nM.

`Cc1ncsc1-c1ccc(CNC(=O)[C@@H]2C[C@@H](O)CN2C(=O)[C@@H](NC(=O)CCNCCOCCOCCOCCNC(=O)[C@]2(Cc3cccc(Nc4nccs4)n3)CC[C@@H](Oc3cccc(Cl)c3F)CC2)C(C)(C)C)cc1` [UB-180782] registered an EC50 of more than 1000 nM.

In the case of `Cc1ncsc1-c1ccc(CNC(=O)[C@@H]2C[C@@H](O)CN2C(=O)[C@@H](NC(=O)CNCCOCCOCCOCCNC(=O)[C@]2(Cc3cccc(Nc4nccs4)n3)CC[C@@H](Oc3cccc(Cl)c3F)CC2)C(C)(C)C)cc1` [UB-180783], the EC50 was more than 1000 nM.

`Cc1ncsc1-c1ccc(CNC(=O)[C@@H]2C[C@@H](O)CN2C(=O)[C@@H](NC(=O)CCNCCOCCn2cc(CNC(=O)c3ccc(Nc4ncc5c(n4)-c4ccc(Cl)cc4C(c4c(F)cccc4F)=NC5)cc3)nn2)C(C)(C)C)cc1` [UB-180784] registered an EC50 of more than 1000 nM.

In the case of `Cc1ncsc1-c1ccc(CNC(=O)[C@@H]2C[C@@H](O)CN2C(=O)[C@@H](NC(=O)CCNCCOCCn2cc(CNC(=O)[C@]3(Cc4cccc(Nc5nccs5)n4)CC[C@@H](Oc4cccc(Cl)c4F)CC3)nn2)C(C)(C)C)cc1` [UB-180785], the concentration giving a half-maximal response (EC50) is more than 1000 nM.

On to `Cc1ncsc1-c1ccc(CNC(=O)[C@@H]2C[C@@H](O)CN2C(=O)[C@@H](NC(=O)CCNCCn2cc(COCCOCCNC(=O)c3ccc(Nc4ncc5c(n4)-c4ccc(Cl)cc4C(c4c(F)cccc4F)=NC5)cc3)nn2)C(C)(C)C)cc1` [UB-180786], for which the concentration giving a half-maximal response (EC50) is more than 1000 nM.

As to `Cc1ncsc1-c1ccc(CNC(=O)[C@@H]2C[C@@H](O)CN2C(=O)[C@H](NC(=O)CCCNCCn2cc(COCCOCCNC(=O)c3ccc(Nc4ncc5c(n4)-c4ccc(Cl)cc4C(c4c(F)cccc4F)=NC5)cc3)nn2)C(C)(C)C)cc1` [UB-180787], the EC50 is more than 1000 nM.

The compound `Cc1ncsc1-c1ccc(CNC(=O)[C@@H]2C[C@@H](O)CN2C(=O)[C@@H](NC(=O)COCCNCCn2cc(COCCOCCNC(=O)c3ccc(Nc4ncc5c(n4)-c4ccc(Cl)cc4C(c4c(F)cccc4F)=NC5)cc3)nn2)C(C)(C)C)cc1` [UB-180788] yielded an EC50 of more than 1000 nM.

`Cc1ncsc1-c1ccc(CNC(=O)[C@@H]2C[C@@H](O)CN2C(=O)[C@@H](NC(=O)CCNCCn2cc(COCCOCCOCCNC(=O)[C@]3(Cc4cccc(Nc5nccs5)n4)CC[C@@H](Oc4cccc(Cl)c4F)CC3)nn2)C(C)(C)C)cc1` [UB-180789] showed a half-maximal effective concentration (EC50) of more than 1000 nM.

`Cc1ncsc1-c1ccc(CNC(=O)[C@@H]2C[C@@H](O)CN2C(=O)[C@@H](NC(=O)CCCNCCn2cc(COCCOCCOCCNC(=O)[C@]3(Cc4cccc(Nc5nccs5)n4)CC[C@@H](Oc4cccc(Cl)c4F)CC3)nn2)C(C)(C)C)cc1` [UB-180790] came in with an EC50 of more than 1000 nM.

For the compound `Cc1ncsc1-c1ccc(CNC(=O)[C@@H]2C[C@@H](O)CN2C(=O)[C@@H](NC(=O)COCCNCCn2cc(COCCOCCOCCNC(=O)[C@]3(Cc4cccc(Nc5nccs5)n4)CC[C@@H](Oc4cccc(Cl)c4F)CC3)nn2)C(C)(C)C)cc1` [UB-180791], the EC50 is more than 1000 nM.

`O=C1CCC(N2Cc3c(NC(=O)COCCNCCOCCOCCOCCNC(=O)c4ccc(Nc5ncc6c(n5)-c5ccc(Cl)cc5C(c5c(F)cccc5F)=NC6)cc4)cccc3C2=O)C(=O)N1` (centres unmarked) [UB-180792] registered an EC50 of 100 to 1000 nM.

As for `O=C1CCC(N2Cc3c(NC(=O)COCCNCCOCCOCCOCCNC(=O)[C@]4(Cc5cccc(Nc6nccs6)n5)CC[C@@H](Oc5cccc(Cl)c5F)CC4)cccc3C2=O)C(=O)N1` (some centres unmarked) [UB-180793], the EC50 fell in the range of 100 to 1000 nM.

The compound `O=C1CCC(N2Cc3c(NC(=O)COCCOCCOCCNCCNC(=O)c4ccc(Nc5ncc6c(n5)-c5ccc(Cl)cc5C(c5c(F)cccc5F)=NC6)cc4)cccc3C2=O)C(=O)N1` (centres unmarked) [UB-180794] registered a half-maximal effective concentration (EC50) of more than 1000 nM.

Compound `O=C1CCC(N2Cc3c(NC(=O)COCCOCCOCCNCCNC(=O)[C@]4(Cc5cccc(Nc6nccs6)n5)CC[C@@H](Oc5cccc(Cl)c5F)CC4)cccc3C2=O)C(=O)N1` (some centres unmarked) [UB-180795] displayed an EC50 of 100 to 1000 nM.

As to `O=C1CCC(N2Cc3c(NC(=O)CCOCCOCCOCCNCCNC(=O)c4ccc(Nc5ncc6c(n5)-c5ccc(Cl)cc5C(c5c(F)cccc5F)=NC6)cc4)cccc3C2=O)C(=O)N1` (centres unmarked) [UB-180796], the EC50 is more than 1000 nM.

Take `O=C1CCC(N2Cc3c(NC(=O)CCOCCOCCOCCNCCNC(=O)[C@]4(Cc5cccc(Nc6nccs6)n5)CC[C@@H](Oc5cccc(Cl)c5F)CC4)cccc3C2=O)C(=O)N1` (some centres unmarked) [UB-180797]: the EC50 was more than 1000 nM.

`O=C1CCC(N2Cc3c(NC(=O)COCCOCCOCCNCCOCCNC(=O)c4ccc(Nc5ncc6c(n5)-c5ccc(Cl)cc5C(c5c(F)cccc5F)=NC6)cc4)cccc3C2=O)C(=O)N1` (centres unmarked) [UB-180798]: the EC50 fell in the range of 100 to 1000 nM.

Compound `O=C1CCC(N2Cc3c(NC(=O)COCCOCCOCCNCCOCCNC(=O)[C@]4(Cc5cccc(Nc6nccs6)n5)CC[C@@H](Oc5cccc(Cl)c5F)CC4)cccc3C2=O)C(=O)N1` (some centres unmarked) [UB-180799] gave a 50% effective concentration (EC50) of 100 to 1000 nM.

In the case of `O=C1CCC(N2Cc3c(NC(=O)CCOCCOCCOCCNCCOCCNC(=O)c4ccc(Nc5ncc6c(n5)-c5ccc(Cl)cc5C(c5c(F)cccc5F)=NC6)cc4)cccc3C2=O)C(=O)N1` (centres unmarked) [UB-180803], the EC50 is 100 to 1000 nM.

In turn, `O=C1CCC(N2Cc3c(NC(=O)CCNCCOCCOCCOCCOCCNC(=O)c4ccc(Nc5ncc6c(n5)-c5ccc(Cl)cc5C(c5c(F)cccc5F)=NC6)cc4)cccc3C2=O)C(=O)N1` (centres unmarked) [UB-180807] showed an EC50 of 100 to 1000 nM.

`O=C1CCC(N2Cc3c(NC(=O)CCNCCOCCOCCOCCOCCNC(=O)[C@]4(Cc5cccc(Nc6nccs6)n5)CC[C@@H](Oc5cccc(Cl)c5F)CC4)cccc3C2=O)C(=O)N1` (some centres unmarked) [UB-180808] registered an EC50 of 100 to 1000 nM.

Compound `O=C1CCC(N2Cc3c(NC(=O)CNCCOCCOCCNC(=O)c4ccc(Nc5ncc6c(n5)-c5ccc(Cl)cc5C(c5c(F)cccc5F)=NC6)cc4)cccc3C2=O)C(=O)N1` (centres unmarked) [UB-180809] displayed an EC50 of 100 to 1000 nM.

For the compound `O=C1CCC(N2Cc3c(NC(=O)CNCCOCCN4CCN(CCNC(=O)c5ccc(Nc6ncc7c(n6)-c6ccc(Cl)cc6C(c6c(F)cccc6F)=NC7)cc5)CC4)cccc3C2=O)C(=O)N1` (centres unmarked) [UB-180811], the EC50 fell in the range of 100 to 1000 nM.

Regarding `CC[C@@H]1C(=O)N(C)c2cnc(Nc3ccc(C(=O)NCCOCCOCCOCCOCCNCCC(=O)Nc4cccc5c4CN(C4CCC(=O)NC4=O)C5=O)cc3OC)nc2N1C1CCCC1` (some centres unmarked) [UB-180813], the EC50 was 10 to 100 nM.

The compound `CC[C@@H]1C(=O)N(C)c2cnc(Nc3ccc(C(=O)NCCOCCOCCNCC(=O)Nc4cccc5c4CN(C4CCC(=O)NC4=O)C5=O)cc3OC)nc2N1C1CCCC1` (some centres unmarked) [UB-180814] came in with an EC50 of 10 to 100 nM.

Regarding `CC[C@@H]1C(=O)N(C)c2cnc(Nc3ccc(C(=O)NCCNCCOCCOCCOCC(=O)Nc4cccc5c4CN(C4CCC(=O)NC4=O)C5=O)cc3OC)nc2N1C1CCCC1` (some centres unmarked) [UB-180815], the EC50 is 10 to 100 nM.

The same assay, now with this note: MV4;11 cells.
In the case of `O=C1CCC(N2Cc3c(NC(=O)CNCCOCCN4CCN(CCNC(=O)[C@]5(Cc6cccc(Nc7nccs7)n6)CC[C@@H](Oc6cccc(Cl)c6F)CC5)CC4)cccc3C2=O)C(=O)N1` (some centres unmarked) [UB-180812], the EC50 lay in the range of 100 to 1000 nM.
